Measured values reported in patent US8664233B2, “Substituted 5H-pyrimido[5,4-B]indoles, method for the production thereof and use thereof for treating non-solid malignant tumors of the blood-producing system” (The Medicines Company (Leipzig) GmbH, priority 2006, dated 2014).
Like-named read-outs stand apart in the source and are kept apart here.

What was measured:
B-CLL cells [1] = experiment: formazane reduction assay (MMT test), cytotoxicity after 24 h incubation of the patient's blood; assay type: cell-based, human
Procedure: Compounds according to the invention were tested as inductors of a cytotoxic reaction, i.e. triggering of apoptosis, in the case of chronic lymphatic leukemia (B-CLL).
Fludarabine, which is used in B-CLL as a standard chemotherapeutic agent, was employed as a positive control. A cytotoxicity up to a maximum of 60% was achievable under equal test conditions.
The cytotoxicity of the B-CLL cells was determined by means of a commercially available formazane reduction assay (MMT test) after 24 h of incubation of the patient's blood with the active substances.

B-CLL cells [2] = experiment: cytotoxicity / vitality of purified primary B-CLL cells (CellTiter-Glo ATP assay, resazurine vitality test), 72 h; assay type: cell-based; conditions: Homo sapiens; leukemic B lymphocytes of a B-CLL patient with an 11q deletion (FIG. 1)
From the text: In order to check the selective effect of various substances as to the vitality of human cells, isolated B cells from patients suffering from chronic B cell leukemia (B-CLL) and also purified […] (PBMC) and erythrocytes from healthy donors were investigated. The permanent human EHEB B-CLL cell line was selected as a model system for the chronic lymphatic B cell leukemia. It is known in the literature that as compared to primary B-CLL cells the EHEB cells respond in a much more insensitive fashion to proapoptotic signals. The cells were incubated with concentration series of the test substances for 3 days and the vitality of the cells was determined by means of CellTiter-Glo™ ATP assay (Promega, catalog number G7571) according to the manufacturer's instructions after this period.
Primary tumor cells are isolated from whole blood by means of density gradient centrifugation. To this end, the patient's whole blood is incubated with 50.0 μl human B cell enrichment cocktail (RosetteSep; Stem Cell Technology, Cat #15064) per milliliter whole blood at room temperature (RT) for 20 min. […] Having determined the cell number by means of trypan blue staining (trypan blue solution of Sigma-Aldrich, catalog no. T-8154) the desired number of test plates can be prepared. […]

caspases 3, 7 and 9 = experiment: caspase-Glo 3/7 and caspase-Glo 9 assays in EHEB cells; assay type: cell-based, human; conditions: 4.5 and 24 hours (FIG. 2)
Procedure: In order to determine the specific induction of programmed cell death (apoptosis), a detection thereof was carried out by means of caspase-3/7 activity; the caspase-3/7 activity is described in the literature as a safe detection of apoptosis.
The EHEB cells were prepared as described above and incubated with three concentration dilutions, each in triple determination, for 4.5 and 24 hours. Thus, substance final concentrations were selected from 50.0, 10.0 and 2.00 μM for the 4 hour batches as well as 10.0, 1.00 and 0.50 μM for the 24 hour batches. In this connection, staurosporine in a final concentration of 2.00 μM (4 hour batches) and 0.50 μM (24 hour batches) acted as the positive control. In order to detect the caspase-3/7 activity, the caspase-Glo 3/7 and caspase-Glo 9 assays of Promega company were used; in this connection, the enzyme activity was determined by means of a luminescence signal which was recorded with the FluostarOPTIMA measurement device (BMG Labtechnologies).
The results were evaluated by a comparison between the relative luminescence intensity of the test substances and the positive control (staurosporine=100%) by means of the Excel program. The relative intensities for the substances according to the invention are up to 100% with an inhibitor concentration between 1 and 50 μM. […]

B-CLL cells [3] = experiment: synergistic effect with fludarabine on induction of apoptosis in purified B-CLL cells; assay type: cell-based, human
From the text: As shown, a combination of an exemplary substance according to the invention with fludarabine already yields a total toxicity of the B-CLL cells of over 80% with a 10% toxic concentration of each partner. In the case of an additive effect of both substances, only about 20% toxicity could be expected. If the concentration of both substances is increased such that each substance kills 20% of the cells in a separate test, a toxicity of almost 100% is obtained in this synergy experiment.

Structure (SMILES)	cytotoxicity (apoptosis) of the leukemia cells, maximum reached (B-CLL cells [1])	other results
CCOc1nc(N2CCNCC2)c2[nH]c3cc(-c4ccncc4)ccc3c2n1 [2-ethoxy-4-(piperazin-1-yl)-7-(pyridin-4-yl)-5H-pyrimido[5,4-b]indole]	up to 100%	
OCCOc1nc(N2CCNCC2)nc2c1[nH]c1cc(-c3ccncc3)ccc12 [2-{2-(piperazin-1-yl)-7-(pyridin-4-yl)-5H-pyrimido[5,4-b]indol-4-yloxy}ethanol]	up to 100%	
CCOc1nc(N2CCNCC2)nc2c1[nH]c1cc(-c3cccc(C(=O)O)c3)ccc12.Cl [3-(4-ethoxy-2-(piperazin-1-yl)-5H-pyrimido[5,4-b]indol-7-yl)benzoic acid hydrochloride]	up to 100%	
CCOc1nc(N2CCNCC2)nc2c1[nH]c1cc(-c3cccc(C(=O)OC)c3)ccc12 [3-(4-ethoxy-2-(piperazin-1-yl)-5H-pyrimido[5,4-b]indol-7-yl)benzoic acid methyl ester]	up to 100%	
CCOC(=O)c1ccc(-c2ccc3c(c2)[nH]c2c(OCC)nc(N4CCNCC4)nc23)cc1 [4-(4-ethoxy-2-(piperazin-1-yl)-5H-pyrimido[5,4-b]indol-7-yl)benzoic acid ethyl ester]	up to 100%	
CCOc1nc(N2CCNCC2)nc2c1[nH]c1cc(-c3ccc(C(=O)O)cc3)ccc12.Cl [4-(4-ethoxy-2-(piperazin-1-yl)-5H-pyrimido[5,4-b]indol-7-yl)benzoic acid hydrochloride]	up to 100%	
CCOc1nc(N2CCNCC2)nc2c1[nH]c1cc(-c3ccc(O)cc3)ccc12.Cl [4-(4-ethoxy-2-(piperazin-1-yl)-5H-pyrimido[5,4-b]indol-7-yl)phenol-hydrochloride]	up to 100%	
CCOc1nc(N2CCN(C)CC2)nc2c1[nH]c1cc(-c3ccncc3)ccc12 [4-ethoxy-2-(4-methylpiperazin-1-yl)-7-(pyridin-4-yl)-5H-pyrimido[5,4-b]indole]	up to 100%	
CCOc1nc(N2CCNCC2)nc2c1[nH]c1cc(-c3ccc(N)nc3)ccc12 [4-ethoxy-2-(piperazin-1-yl)-7-(2-aminopyridin-5-yl)-5H-pyrimido[5,4-b]indole]	up to 100%	
CCOc1nc(N2CCNCC2)nc2c1[nH]c1cc(-c3ccc(OC)c(OC)c3)ccc12 [4-ethoxy-2-(piperazin-1-yl)-7-(3,4-dimethoxy-phenyl)-5H-pyrimido[5,4-b]indole]	up to 100%	
CCOc1nc(N2CCNCC2)nc2c1[nH]c1cc(-c3cccnc3)ccc12 [4-ethoxy-2-(piperazin-1-yl)-7-(pyridin-3-yl)-5H-pyrimido[5,4-b]indole]	up to 100%	
CCOc1nc(N2CCNCC2)nc2c1[nH]c1cc(-c3ccncc3)ccc12 [4-ethoxy-2-(piperazin-1-yl)-7-(pyridin-4-yl)-5H-pyrimido[5,4-b]indole]	up to 100%	IC50 (B-CLL cells [2]): 80 nM; activation of caspases 3, 7 and 9 (caspases 3, 7 and 9): activating caspases 3, 7, and 9; total toxicity of the B-CLL cells (B-CLL cells [3]; combination with fludarabine, 10% toxic concentration of each partner): over 80%; toxicity of the B-CLL cells (B-CLL cells [3]; combination with fludarabine, each substance kills 20% of the cells in a separate test): ~100%; effect of combination with fludarabine on the induction of apoptosis (B-CLL cells [3]; purified B-CLL cells (FIG. 4)): synergistic effect
CCOc1nc(N2CCNCC2)nc2c1[nH]c1ccc(-c3ccncc3)cc12 [4-ethoxy-2-(piperazin-1-yl)-8-(pyridin-4-yl)-5H-pyrimido[5,4-b]indole]	up to 100%	
CCOc1nc(N2CCNCC2)nc2c1[nH]c1cc(N3CCOCC3)ccc12 [4-ethoxy-7-morpholino-2-(piperazin-1-yl)-5H-pyrimido[5,4-b]indole]	up to 100%	
CCOc1nc(N2CCNCC2)nc2c1[nH]c1cc(-c3ccncc3)cc(OC)c12 [4-ethoxy-9-methoxy-2-(piperazin-1-yl)-7-(pyridin-4-yl)-5H-pyrimido[5,4-b]indole]	up to 100%	
CCOc1nc(N2CCNCC2)nc2c1[nH]c1cc(-c3ccccc3N)cc(OC)c12 [Example 1, 2-(4-ethoxy-9-methoxy-2-(piperazin-1-yl)-5H-pyrimido[5,4-b]indol-7-yl)benzene amine]	up to 100%	
CCOc1nc(N2CCNCC2)nc2c1[nH]c1c(-c3ccncc3)cccc12 [Example 8, 4-ethoxy-2-(piperazin-1-yl)-6-(pyridin-4-yl)-5H-pyrimido[5,4,-b]indole]	up to 100%	
Nc1nc(F)nc2c1ncn2[C@@H]1O[C@H](CO)[C@@H](O)[C@@H]1O [Fludarabine, fludarabine, reference compound]		cytotoxicity (apoptosis) of the leukemia cells, maximum reached (B-CLL cells [1]; ex vivo, blood of B-CLL patients, 24 h incubation): ≤ 60%
